The values that follow come from ChEMBL document CHEMBL1134241, “Spatial requirements of the antagonist binding site of the NK2 receptor” (Bioorg Med Chem Lett, 2001).

In the experiment the target is T1, Substance-K receptor (Homo sapiens, UniProt P21452).
T1 sequence (P21452 whole entry): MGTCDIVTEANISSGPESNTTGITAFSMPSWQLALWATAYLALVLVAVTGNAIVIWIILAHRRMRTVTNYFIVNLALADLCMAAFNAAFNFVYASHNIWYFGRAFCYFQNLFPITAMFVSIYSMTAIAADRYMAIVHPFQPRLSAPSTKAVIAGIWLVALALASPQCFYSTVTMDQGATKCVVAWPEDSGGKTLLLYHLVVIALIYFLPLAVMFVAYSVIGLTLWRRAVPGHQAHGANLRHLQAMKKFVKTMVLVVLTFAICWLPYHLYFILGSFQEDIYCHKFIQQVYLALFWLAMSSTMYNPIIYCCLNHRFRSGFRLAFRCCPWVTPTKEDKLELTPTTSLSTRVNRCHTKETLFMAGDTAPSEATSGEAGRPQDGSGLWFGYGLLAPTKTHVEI
The experiment is described as follows: Binding affinity for heterologously expressed human Tachykinin receptor 2 using [3H]-SR- 48968 as radioligand.
In general, IC50 refers to the midpoint of a concentration-inhibition curve. A high value points to a need for much substance. In the case of `[O-][S+](C[C@]1(O)CCN2CCc3c([nH]c4ccc(F)cc34)[C@H]2C1)c1ccccc1` (mixture of isomers), the IC50 stood at 25300 nM.
The compound `COC1(C[S+]([O-])c2ccccc2)CCN(CCc2c[nH]c3ccc(F)cc23)CC1` (racemic) had an IC50 of 2.5 nM.
The result for `[O-][S+](CC1(O)CCN(CCc2c[nH]c3ccc(F)cc23)CC1)c1ccc2ccccc2c1` (racemic) reads 13.4 nM; that for `CN(C)C(=O)NC1(c2ccccc2)CCN(CC[C@@]2(c3ccc(F)c(F)c3)CN(C(=O)c3ccccc3)CCO2)CC1` (racemic), 6 nM; that for `[O-][S+](c1ccccc1)C(c1ccccc1)C1(O)CCN(CCc2c[nH]c3ccc(F)cc23)CC1` (racemic), 111 nM.
In turn, `CN(C[C@@H](CCN1CCC(NC(=O)c2ccccc2)(c2ccccc2)CC1)c1ccc(Cl)c(Cl)c1)C(=O)c1ccccc1` (racemic) came in with an IC50 of 14.3 nM.
The result for `[O-][S+](CC1(O)CCN(CCc2c[nH]c3ccc(F)cc23)CC1)c1ccccc1` (racemic) [4-BENZENESULFINYLMETHYL-1-[2-(5-FLUORO-1H-INDOL-3-YL)-ETHYL]-PIPERIDIN-4-OL (STRUCTURAL MIX)] reads 22 nM.
